# Data reported in patent publication US20050238642A1, “Modified bouganin proteins, cytotoxins and methods and uses thereof” (priority 2004, published 2005).
# B1: VB6-845: cytotoxin: Fab version of an anti-Ep-CAM scFv antibody linked to Bou156 at the C-terminus of the CH domain via a furin linker (protein)
# chain 1: EVQLVQSGPGLVQPGGSVRISCAASGYTFTNYGMNWVKQAPGKGLEWMGWINTYTGESTYADSFKGRFTFSLDTSASAAYLQINSLRAEDTAVYYCARFAIKGDYWGQGTLLTVSSASTKGPSVFPLAPSSKSTSGGTAALGCLVKDYFPEPVTVSWNSGALTSGVHTFPAVLQSSGLYSLSSVVTVPSSSLGTQTYICNVNHKPSNTKVDKKVEPKSCTRHRQPRGWEQLYNTVSFNLGEAYEYPTFIQDLRNELAKGTPVCQLPVTLQTIADDKRFVLVDITTTSKKTVKVAIDVTDVYVVGYQDKWDGKDRAVFLDKVPTVATSKLFPGVTNRVTLTFDGSYQKLVNAAKADRKALELGVNKLEFSIEAIHGKTINGQEAAKFFLIVIQMVSEAARFKYIETEVVDRGLYGSFKPNFKVLNLENNWGDISDAIHKSSPQCTTINPALQLISPSNDPWVVNKVSQISPDMGILKFKSSK
# chain 2: HHHHHHDIQMTQSPSSLSASVGDRVTITCRSTKSLLHSNGITYLYWYQQKPGKAPKLLIYQMSNLASGVPSRFSSSGSGTDFTLTISSLQPEDFATYYCAQNLEIPRTFGQGTKVELKRTVAAPSVFIFPPSDEQLKSGTASVVCLLNNFYPREAKVQWKVDNALQSGNSQESVTEQDSKDSTYSLSSTLTLSKADYEKHKVYACEVTHQGLSSPVTKSFNRGEC
# How the values were obtained:
# NIH:OVCAR-3 = experiment: MTS cytotoxicity assay; assay type: cell-based; conditions: Ep-CAM-positive NIH:OVCAR-3, MTS, 5 days
# Procedure: The MTS assay used to measure potency was conducted using standard technique known in the art, and as more fully described below in Example 8. […] In the case of VB6-845-CL-de-bouganin, the potency was measured at 1 to 2 nM for CAL 27 and 0.6 to 0.7 nM versus NIH:OVCAR-3.
# (§1) The MTS assay was preformed using standard techniques known in the art. More particularly, 50 microlitres of cells (2×10^4 cells/ml) were seeded per well and plates were incubated at 37° C. under 5% CO2 for 2 hr. Then 50 microlitres of spiked drug (i.e. construct to be tested or control) was added to the culture medium at increasing concentrations. Culture medium, with or without cells, was used as positive and negative controls, respectively. The plates were left at 37° C. under 5% CO2 for 5 days. At day 5, the inhibition of cell proliferation was evaluated by adding 20 microlitres of MTS reagent (Promega, Cat# G5430). The plates were further incubated at 37° C. under 5% CO2 for 2 hr and ODs were read at 490 nm using the plate reader spetrophotometer. Background values were subtracted from the sample values obtained for each concentration and the results were expressed as a percent of viable cells. The IC50 values for each drug were calculated for each cell line.
# A-375 = experiment: MTS cytotoxicity assay; assay type: cell-based; conditions: Ep-CAM-negative A-375, MTS, 5 days
# Procedure: as §1
# HMEC = experiment: MTS cytotoxicity assay; assay type: cell-based, human; conditions: Ep-CAM-negative HMEC, 5 days
# Procedure: The tumour cell lines used in this study were purchase from ATCC and were propagated following ATCC's recommendations except for the cell lines C-41, TOV-112D which were grown in RPMI 1640 or DMEM supplemented with 10% FCS, respectively. Tumor cells were harvested at 60-70% confluence with viability over 90%. The human normal mammary epithelial cells (HMEC) were purchased from CAMBREX and maintained in specified media according to the procedure provided by CAMBREX. The cells were harvested at 70% confluence with viability over 90%.
# as §1
# [1] = tested on: PBMCs (peripheral blood mononuclear cells) from naive donors; experiment: Naive human T-cell proliferation assay (3H-thymidine incorporation, stimulation index); assay type: cell-based; conditions: for presence of T cell epitope: compilation of 20 donors, 1 μM and 5 μM; for responsive donors: of 20 donor PBMC samples; for T cell proliferation (in words): compared with peptide 44
# Procedure: Accordingly, in the present studies, 89 synthetic 15-mer peptides (as listed in Table 1) were used in T-cell proliferation assays with PBMCs (peripheral blood mononuclear cells) from naive donors (i.e. no known sensitization to bouganin). 20 donor PBMC samples were selected to achieve an optimal coverage of MHC class II allotypes. PBMCs were stimulated with individual peptides in triplicate cultures for 7 days before proliferation was assessed by ^3H-thymidine incorporation. All peptides were diluted at two different concentrations: 1 μM and 5 μM. The stimulation indices (SI) were calculated as the amount of ^3H incorporated into the cells, divided by the amount of ^3H incorporated in mock-stimulated controls.
# The peptides were used in T-cell proliferation assays with PBMCs (peripheral blood mononuclear cells) from naive donors (i.e. no known sensitization to bouganin). 20 donor PBMC were selected to get an optimal coverage of MHC class II allotypes. The allotypic coverage is in excess of 85%.
# PBMCs were stimulated with individual peptides in triplicate cultures for 7 days before proliferation was assessed by ^3H-thymidine (^3H-Thy) incorporation. All peptides were tested at two different concentrations (1 μM and 5 μM). Stimulation indices (S.I.) were calculated as the amount of ^3H incorporated, divided by the amount of ^3H incorporated in mock-stimulated control cells.
# Buffy coats from human blood stored for less than 12 hours were obtained from the National Blood Service (Addenbrooks Hospital, Cambridge, UK). Ficoll-paque was obtained from Amersham Pharmacia Biotech (Amersham, UK). Serum free AIM V media for the culture of primary human lymphocytes and containing L-glutamine, 50 μg/ml streptomycin, 10 μg/ml gentomycin and 0.1% human serum albumin was from Gibco-BRL (Paisley, UK). Synthetic peptides were obtained from Eurosequence (Groningen, The Netherlands) and Babraham Technix (Cambridge, UK).
# Erythrocytes and leukocytes were separated from plasma and platelets by gentle centrifugation of buffy coats. The top phase (containing plasma and platelets) was removed and discarded. Erythrocytes and leukocytes were diluted 1:1 in phosphate buffered saline (PBS) before layering onto 15 ml ficoll-paque (Amersham Pharmacia, Amersham UK). Centrifugation was done according to the manufacturers recommended conditions and PBMCs were harvested from the serum+PBS/ficoll paque interface. PBMCs were mixed with PBS (1:1) and collected by centrifugation. The supernatant was removed and discarded and the PBMC pellet resuspended in 50ml PBS. Cells were again pelleted by centrifugation and the PBS supernatant discarded. Cells were resuspended using 50 ml AIM V media and at this point counted and viability assessed using trypan blue dye exclusion. Cells were again collected by centrifugation and the supernatant discarded. Cells were resuspended for cryogenic storage at a density of 3×10^7 per ml. The storage medium was 90% (v/v) heat inactivated AB human serum (Sigma, Poole, UK) and 10% (v/v) DMSO (Sigma, Poole, UK). Cells were transferred to a regulated freezing container (Sigma) and placed at −70° C. overnight. When required for use, cells were thawed rapidly in a water bath at 37° C. before transferring to 10ml pre-warmed AIM V medium.
# PBMC were stimulated with protein and peptide antigens in a 96 well flat bottom plate at a density of 2×10^5 PBMC per well. PBMC were incubated for 7 days at 37° C. before pulsing with ^3H-Thy (Amersham-Pharmacia, Amersham, UK). […] C-32=sequence […] from Flu haemagglutinin residues 307-319 (SEQ ID NO:127). C-49=sequence […] from Chlamydia HSP 60 (SEQ ID NO:128).
# Peptides were dissolved in DMSO to a final concentration of 10 mM, these stock solutions were then diluted 1/500 in AIM V media (final concentration 20 μM). Peptides were added to a flat bottom 96 well plate to give a final concentration of 1 and 5 μM in 100 μl. […]
# DAUDI = experiment: MTS cytotoxicity assay; assay type: cell-based; conditions: Ep-CAM-negative DAUDI, 5 days
# Procedure: as §1
molecule,measurement,setting,value
COc1cccc2c1C(=O)c1c(O)c3c(c(O)c1C2=O)C[C@@](O)(C(=O)CO)C[C@@H]3O[C@H]1C[C@H](N)[C@H](O)[C@H](C)O1 [Doxorubicin],IC50,"NIH:OVCAR-3; Homo sapiens, 120 h",3 nM
same,IC50,"A-375; Homo sapiens, 120 h",2.8 nM
same,IC50,"HMEC; Homo sapiens, 120 h",16 nM
"EIAKFFLIVIQMVSE [peptide 51, bouganin 15-mer peptide, first amino acid 151]",S.I. (stimulation index),[1]; donor 14,> 1.9
Bleomycin Sulfate,IC50,NIH:OVCAR-3,30 nM
same,IC50,A-375,170 nM
same,IC50,DAUDI,22 nM
same,IC50,HMEC,600 nM
N.N.[Cl][Pt][Cl] [Cisplatin],IC50,NIH:OVCAR-3,> 1000 nM
same,IC50,A-375,> 1000 nM
same,IC50,DAUDI,> 1000 nM
same,IC50,HMEC,> 1000 nM
COc1cc([C@@H]2c3cc4c(cc3[C@@H](O[C@@H]3O[C@@H]5CO[C@@H](C)O[C@H]5[C@H](O)[C@H]3O)[C@H]3COC(=O)[C@H]23)OCO4)cc(OC)c1O [Etoposide],IC50,"NIH:OVCAR-3; Homo sapiens, 120 h",210 nM
same,IC50,"A-375; Homo sapiens, 120 h",280 nM
same,IC50,"DAUDI; Homo sapiens, 120 h",1.7 nM
same,IC50,"HMEC; Homo sapiens, 120 h",600 nM
CN(Cc1cnc2nc(N)nc(N)c2n1)c1ccc(C(=O)N[C@@H](CCC(=O)O)C(=O)O)cc1 [Methotrexate],IC50,"NIH:OVCAR-3; Homo sapiens, 120 h",> 1000 nM
same,IC50,"A-375; Homo sapiens, 120 h",6 nM
same,IC50,"DAUDI; Homo sapiens, 120 h",3.6 nM
same,IC50,"HMEC; Homo sapiens, 120 h",41 nM
N.N.O=C([O-])C1(C(=O)[O-])CCC1.[Pt+2] [Carboplatin],IC50,NIH:OVCAR-3,> 1000 nM
same,IC50,A-375,> 1000 nM
same,IC50,DAUDI,> 1000 nM
same,IC50,HMEC,> 1000 nM
"IVEDLDGDELEILEP [peptide 88, 15-mer peptide of the unprocessed form of bouganin, first amino acid 261]",presence of T cell epitope,[1],T cell epitopes
O=c1[nH]cc(F)c(=O)[nH]1 [Fluorouracil],IC50,"NIH:OVCAR-3; Homo sapiens, 120 h",> 1000 nM
same,IC50,"A-375; Homo sapiens, 120 h",> 1000 nM
same,IC50,"DAUDI; Homo sapiens, 120 h",> 1000 nM
same,IC50,"HMEC; Homo sapiens, 120 h",> 1000 nM
Cc1c(N)nc([C@H](CC(N)=O)NC[C@H](N)C(N)=O)nc1C(=O)N[C@H](C(=O)N[C@H](C)[C@@H](O)[C@H](C)C(=O)N[C@H](C(=O)NCCc1nc(-c2nc(C(=O)NCCCNCCCCN)cs2)cs1)[C@@H](C)O)[C@@H](O[C@@H]1O[C@@H](CO)[C@@H](O)[C@H](O)[C@@H]1O[C@@H]1O[C@H](CO)[C@@H](O)[C@H](OC(N)=O)[C@@H]1O)c1cnc[nH]1 [Bleomycin A5],IC50,NIH:OVCAR-3,150 nM
same,IC50,A-375,290 nM
same,IC50,DAUDI,130 nM
same,IC50,HMEC,1000 nM
"NGQEIAKFFLIVIQM [peptide 50, bouganin 15-mer peptide, first amino acid 148]",presence of T cell epitope,[1],T cell epitopes
same,S.I. (stimulation index),[1]; donor 4,2.9
same,S.I. (stimulation index),[1]; donor 14,2.0
same,responsive donors,[1],2
O=C(O)CCCc1ccc(N(CCCl)CCCl)cc1 [Chlorambucil],IC50,"NIH:OVCAR-3; Homo sapiens, 120 h",> 1000 nM
same,IC50,"A-375; Homo sapiens, 120 h",> 1000 nM
same,IC50,"DAUDI; Homo sapiens, 120 h",> 1000 nM
same,IC50,"HMEC; Homo sapiens, 120 h",> 1000 nM
CO[C@@]12[C@H](COC(N)=O)C3=C(C(=O)C(C)=C(N)C3=O)N1C[C@@H]1N[C@@H]12 [Mitomycin C],IC50,NIH:OVCAR-3,28 nM
same,IC50,A-375,14 nM
same,IC50,DAUDI,2.8 nM
same,IC50,HMEC,50 nM
O=P1(N(CCCl)CCCl)NCCCO1 (stereo not drawn) [Cyclophosphamide],IC50,"NIH:OVCAR-3; Homo sapiens, 120 h",> 1000 nM
same,IC50,"A-375; Homo sapiens, 120 h",> 1000 nM
same,IC50,"DAUDI; Homo sapiens, 120 h",> 1000 nM
same,IC50,"HMEC; Homo sapiens, 120 h",> 1000 nM
CC[C@@]1(O)C(=O)OCc2c1cc1n(c2=O)Cc2cc3c(CN(C)C)c(O)ccc3nc2-1 [Topotecan],IC50,"NIH:OVCAR-3; Homo sapiens, 120 h",0.071 nM
same,IC50,"A-375; Homo sapiens, 120 h",1.5 nM
same,IC50,"DAUDI; Homo sapiens, 120 h",0.009 nM
same,IC50,"HMEC; Homo sapiens, 120 h",4.1 nM
"YKLEFSIEAIHGKTI [compound 45, bouganin 15-mer peptide, first amino acid 133]",T cell proliferation (in words),[1],lower level T cell proliferation
"DLELGVYKLEFSIEA [compound 43, bouganin 15-mer peptide, first amino acid 127]",T cell proliferation (in words),[1],lower level T cell proliferation
"LGVYKLEFSIEAIHG [peptide 44, bouganin 15-mer peptide, first amino acid 130]",presence of T cell epitope,[1],T cell epitopes
same,S.I. (stimulation index),[1]; donor 4,3.5
same,S.I. (stimulation index),[1]; donor 11,2.3
same,responsive donors,[1],two
"AKVDRKDLELGVYKL [peptide 41, bouganin 15-mer peptide, first amino acid 121]",presence of T cell epitope,[1],T cell epitopes
same,S.I. (stimulation index),"[1]; donor 4, peptide at 5 μM",3.6
same,S.I. (stimulation index),"[1]; donor 5, peptide at 5 μM",4.9
same,S.I. (stimulation index),"[1]; donor 10, peptide at 5 μM",2.1
same,S.I. (stimulation index),"[1]; donor 11, peptide at 5 μM",2.0
same,responsive donors,[1],four
CCc1c2c(nc3ccc(OC(=O)N4CCC(N5CCCCC5)CC4)cc13)-c1cc3c(c(=O)n1C2)COC(=O)[C@]3(O)CC [Irinotecan],IC50,"NIH:OVCAR-3; Homo sapiens, 120 h",180 nM
same,IC50,"A-375; Homo sapiens, 120 h",900 nM
same,IC50,"DAUDI; Homo sapiens, 120 h",190 nM
same,IC50,"HMEC; Homo sapiens, 120 h",1000 nM
B1,IC50,A-375,> 1000 nM
same,IC50,DAUDI,> 1000 nM
same,IC50,HMEC,220 nM
